5 compounds from ChEMBL document CHEMBL1201862, “PubChem BioAssay data set” (2004) can be followed below.

Each structure is given as a SMILES string.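 Values below derive from 48-hour exposures of cells grown in 96-well plates, with endpoints linearly interpolated between the two concentrations bracketing the appropriate inhibition level. At the GI50, growth is halved.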 The source made the active and inactive calls. Cut-off read from the data, not from the text of the source: active = GI50 up to about 1.1 µM and inactive = higher. Some results are limits rather than exact numbers.

Some test systems named below: U-251; SF-268; Malme-3M; SK-MEL-2; BT-549; HCC 2998; HT-29; CAKI-1; OVCAR-8; MCF7; HOP-62; K562; SNB-75; SF-539; SF-295; NCI-H226; SN12C; RXF 393; CCRF-CEM; MDA-MB-435; KM12; ACHN; SNB-19; PC-3; DU-145; IGROV-1; HOP-92; EKVX; MOLT-4; 786-0; HCT-116; UO-31; HL-60; SR; SW-620; NCI-H460; SK-MEL-28; NCI-H23; RPMI-8226; UACC-257; HCT-15; A549; NCI/ADR-RES; TK-10; T47D; COLO 205; OVCAR-3; LOX IMVI; M14; UACC-62; MDA-MB-231; SK-OV-3; OVCAR-4; SK-MEL-5; A498; NCI-H522; OVCAR-5.

Common to all, as to experiment: growth of human tumour cells (NCI), 48 h

As to `CC(=O)OCC1OC(O[C@@H]2C[C@H]3C(C)(C)[C@H](OC(C)=O)CC[C@]3(C)[C@H]3CCC4=C([C@@H](C)C[C@@H](O)[C@H](O)C(C)(C)O)CC[C@@]4(C)[C@@]32C)C(O)C(O)C1O` (stereo not given in full), the GI50 is 14.6 µM (inactive) in the experiment on U-251 and 13.6 µM (inactive) in the experiment with SF-268.

As for `CC(=O)OCC(OC(C)=O)C(OC(C)=O)C(C=NN(C(C)=O)S(=O)(=O)c1ccc(/C=C2\NC(=O)NC2=O)cc1)OC(C)=O` (stereo not given), the GI50 with Malme-3M, in the experiment on SK-MEL-2, in the experiment with BT-549, in the experiment on HCC 2998, in the experiment with HT-29 and in the experiment with CAKI-1 was > 100 µM (inactive) each time. The GI50 in the experiment with OVCAR-8, in the experiment with MCF7, with HOP-62, in the experiment with K562, with SNB-75 and with SF-539 was > 100 µM (inactive) throughout. The GI50 in the experiment with SF-295, with NCI-H226, in the experiment on SN12C and in the experiment with RXF 393 was > 100 µM (inactive) throughout.

Consider `C(=C\c1ccc(-c2cn3cc(/C=C/C=N/NC4=NCCN4)ccc3n2)cc1)/C=N/NC1=NCCN1`, for which the GI50 in the experiment on CCRF-CEM is 1.66 µM (inactive); in the experiment with MDA-MB-435, 1.29 µM (inactive); with SK-MEL-2, 1.35 µM (inactive); in the experiment with KM12, 2 µM (inactive); with ACHN, 1.36 µM (inactive); in the experiment on SNB-19, 1.27 µM (inactive). For the same compound, the GI50 is 1.47 µM (inactive) in the experiment on PC-3; 0.399 µM (active) in the experiment on U-251; 2 µM (inactive) with DU-145; 2.05 µM (inactive) with IGROV-1; 1.14 µM (inactive) in the experiment on HOP-92; 1.19 µM (inactive) in the experiment on HCC 2998. Besides, the GI50 with EKVX was 1.6 µM (inactive); in the experiment on CAKI-1, 1.3 µM (inactive); in the experiment on MOLT-4, 2.07 µM (inactive); in the experiment with 786-0, 1.32 µM (inactive); in the experiment on OVCAR-8, 1.27 µM (inactive); with HCT-116, 0.589 µM (active). Besides, the GI50 in the experiment with UO-31 was 3.09 µM (inactive); in the experiment with K562 it was 0.461 µM (active); in the experiment on HL-60, 0.368 µM (active); in the experiment with SNB-75 it was 1.31 µM (inactive); with SR, 1.04 µM (active); in the experiment on SW-620, 0.083 µM (active). Moreover, the GI50 in the experiment with NCI-H460 was 0.514 µM (active); with SF-539 it was 1.57 µM (inactive); in the experiment with SK-MEL-28 it was 1.84 µM (inactive); in the experiment with NCI-H226 it was 1.5 µM (inactive); with NCI-H23, 1.72 µM (inactive); in the experiment with RPMI-8226, 0.0427 µM (active). For the same compound, the GI50 with UACC-257 was 0.887 µM (active); in the experiment on HCT-15 it was 3.72 µM; in the experiment with A549 it was 0.294 µM (active); in the experiment on NCI/ADR-RES it was > 25.8 µM (inactive); in the experiment on TK-10, 5.08 µM (inactive); in the experiment on RXF 393, 1.51 µM (inactive).

As to `COc1ccc(-n2c(=O)c3nc[nH]c3n(-c3ccc(OC)cc3)c2=S)cc1`, the GI50 with CCRF-CEM, in the experiment with T47D, in the experiment with MDA-MB-435, with SK-MEL-2, with KM12 and with ACHN was > 100 µM (inactive) each time. Besides, the GI50 in the experiment on PC-3, in the experiment on U-251, in the experiment with COLO 205, in the experiment with BT-549, with OVCAR-3 and with DU-145 was > 100 µM (inactive) each time. Moreover, the GI50 with IGROV-1, in the experiment with HOP-92, in the experiment with HCC 2998, in the experiment with HT-29, with EKVX and in the experiment with CAKI-1 was > 100 µM (inactive) in each case. Moreover, the GI50 in the experiment with LOX IMVI, in the experiment on MOLT-4, in the experiment with 786-0, in the experiment with OVCAR-8, with MCF7 and in the experiment with HOP-62 was > 100 µM (inactive) each time. Moreover, the GI50 in the experiment with HCT-116, with UO-31, in the experiment with K562, with HL-60, in the experiment with SNB-75 and with SR was > 100 µM (inactive) in each case. Moreover, the GI50 in the experiment on SW-620, with NCI-H460, with SF-268, with SF-539, with SK-MEL-28 and in the experiment with M14 was > 100 µM (inactive) throughout. Further, the GI50 with SF-295, with NCI-H226, with NCI-H23, in the experiment on UACC-62, in the experiment on RPMI-8226 and in the experiment with UACC-257 was > 100 µM (inactive) each time. The GI50 is > 100 µM (inactive) in the experiment on MDA-MB-231; > 100 µM (inactive) with SN12C; above 100 µM in the experiment on HCT-15; > 100 µM (inactive) in the experiment on SK-OV-3; > 100 µM (inactive) with OVCAR-4; > 100 µM (inactive) with A549. Moreover, the GI50 is > 100 µM (inactive) in the experiment with NCI/ADR-RES; > 100 µM (inactive) in the experiment on SK-MEL-5; > 100 µM (inactive) in the experiment on A498; 17.7 µM (inactive) in the experiment on NCI-H522; > 100 µM (inactive) in the experiment on OVCAR-5; > 100 µM (inactive) in the experiment on TK-10. Further, in the experiment on RXF 393, the GI50 was > 100 µM (inactive).

Take `COc1cc(Nc2nc3cc(N)cc(N)c3nc2-c2ccccc2)cc(OC)c1OC`: in the experiment with HT-29, the GI50 is 16.6 µM (inactive).
